Laboratory results: ChEMBL document CHEMBL4507300 (2021)

Assays:
[1] = target: Myosin-IIIb (Homo sapiens) (UniProt Q8WXR4); details: Compound concentration 1000.0 nM
[2] = target: Aurora kinase C (Homo sapiens) (UniProt Q9UQB9); details: Compound concentration 1000.0 nM
[3] = target: Serine/threonine-protein kinase Nek10 (Homo sapiens) (UniProt Q6ZWH5); details: Compound concentration 1000.0 nM
[4] = target: Tyrosine-protein kinase SYK (Homo sapiens) (UniProt P43405); details: Compound concentration 1000.0 nM
[5] = target: Serine/threonine-protein kinase pim-2 (Homo sapiens) (UniProt Q9P1W9); details: Compound concentration 1000.0 nM
[6] = target: Muscarinic acetylcholine receptor M5 (Homo sapiens) (UniProt P08912); details: Compound concentration 10.0 uM
[7] = target: Serine/threonine-protein kinase Chk1 (Homo sapiens) (UniProt O14757); details: Compound concentration 1000.0 nM
Serine/threonine-protein kinase Chk1 (Homo sapiens), sequence (O14757 whole entry): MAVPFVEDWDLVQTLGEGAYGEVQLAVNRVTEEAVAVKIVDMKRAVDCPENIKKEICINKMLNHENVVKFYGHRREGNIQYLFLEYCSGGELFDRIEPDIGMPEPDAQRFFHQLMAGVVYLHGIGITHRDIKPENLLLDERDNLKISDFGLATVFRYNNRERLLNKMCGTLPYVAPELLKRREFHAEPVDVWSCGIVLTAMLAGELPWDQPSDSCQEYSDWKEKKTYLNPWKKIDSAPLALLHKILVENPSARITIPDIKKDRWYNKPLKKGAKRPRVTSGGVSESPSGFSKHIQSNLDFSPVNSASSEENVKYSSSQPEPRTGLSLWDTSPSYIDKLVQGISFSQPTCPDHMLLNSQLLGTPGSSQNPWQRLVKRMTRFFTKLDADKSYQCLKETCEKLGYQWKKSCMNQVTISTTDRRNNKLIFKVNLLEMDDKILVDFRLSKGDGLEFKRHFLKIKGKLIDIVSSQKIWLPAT

[8] = target: Cyclin-dependent kinase-like 2 (Homo sapiens) (UniProt Q92772); details: Compound concentration 1000.0 nM
[9] = target: Histamine H3 receptor (Homo sapiens) (UniProt Q9Y5N1); details: Compound concentration 10.0 uM
[10] = target: Tyrosine-protein kinase Fer (Homo sapiens) (UniProt P16591); details: Compound concentration 1000.0 nM
[11] = target: Dual specificity mitogen-activated protein kinase kinase 6 (Homo sapiens) (UniProt P52564); details: Compound concentration 1000.0 nM
[12] = target: Serine/threonine-protein kinase 17B (Homo sapiens) (UniProt O94768); details: Compound concentration 1000.0 nM
Serine/threonine-protein kinase 17B (Homo sapiens), sequence (O94768 whole entry): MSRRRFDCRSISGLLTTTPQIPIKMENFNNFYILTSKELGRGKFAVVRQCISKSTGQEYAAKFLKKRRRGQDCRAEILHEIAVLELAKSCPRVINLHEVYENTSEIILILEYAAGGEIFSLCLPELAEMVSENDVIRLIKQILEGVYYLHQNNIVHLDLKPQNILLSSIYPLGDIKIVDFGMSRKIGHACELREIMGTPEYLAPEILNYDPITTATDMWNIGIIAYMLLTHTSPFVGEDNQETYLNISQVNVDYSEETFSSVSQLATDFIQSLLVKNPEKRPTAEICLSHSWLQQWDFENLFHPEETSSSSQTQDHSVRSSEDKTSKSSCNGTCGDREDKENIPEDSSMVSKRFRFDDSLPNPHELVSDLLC

[13] = target: Cyclin-G-associated kinase (Homo sapiens) (UniProt O14976); details: Compound concentration 1000.0 nM
[14] = target: Dual specificity mitogen-activated protein kinase kinase 5 (Homo sapiens) (UniProt Q13163); details: Compound concentration 1000.0 nM
[15] = target: Serine/threonine-protein kinase Nek3 (Homo sapiens) (UniProt P51956); details: Compound concentration 1000.0 nM
[16] = target: Serine/threonine-protein kinase WNK2 (Homo sapiens) (UniProt Q9Y3S1); details: Compound concentration 1000.0 nM
[17] = target: Tyrosine-protein kinase CSK (Homo sapiens) (UniProt P41240); details: Compound concentration 1000.0 nM
Tyrosine-protein kinase CSK (Homo sapiens), sequence (P41240 2-450 limits assumed): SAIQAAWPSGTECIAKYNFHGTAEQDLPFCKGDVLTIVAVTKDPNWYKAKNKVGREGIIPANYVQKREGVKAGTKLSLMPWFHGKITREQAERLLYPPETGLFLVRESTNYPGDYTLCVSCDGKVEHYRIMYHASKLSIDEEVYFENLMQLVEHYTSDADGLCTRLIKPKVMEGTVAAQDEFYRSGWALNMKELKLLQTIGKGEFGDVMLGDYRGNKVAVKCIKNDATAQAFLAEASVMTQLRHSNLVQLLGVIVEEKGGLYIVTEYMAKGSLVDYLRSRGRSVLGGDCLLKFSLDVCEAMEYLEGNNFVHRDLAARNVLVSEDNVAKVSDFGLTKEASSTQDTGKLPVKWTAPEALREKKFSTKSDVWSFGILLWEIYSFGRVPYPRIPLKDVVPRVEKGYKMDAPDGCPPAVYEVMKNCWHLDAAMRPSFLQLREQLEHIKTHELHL

[18] = target: Receptor tyrosine-protein kinase erbB-3 (Homo sapiens) (UniProt P21860); details: Compound concentration 1000.0 nM
[19] = target: Rho-associated protein kinase 1 (Homo sapiens) (UniProt Q13464); details: Compound concentration 1000.0 nM
[20] = target: Serine/threonine-protein kinase D1 (Homo sapiens) (UniProt Q15139); details: Compound concentration 1000.0 nM
[21] = system: Proto-oncogene tyrosine-protein kinase receptor Ret (Homo sapiens), P07949 [V804M]; details: Compound concentration 1000.0 nM
[22] = target: Dual specificity mitogen-activated protein kinase kinase 1 (Homo sapiens) (UniProt Q02750); details: Compound concentration 1000.0 nM
[23] = target: BMP-2-inducible protein kinase (Homo sapiens) (UniProt Q9NSY1); details: Compound concentration 1000.0 nM
[24] = target: cAMP-dependent protein kinase catalytic subunit alpha (Homo sapiens) (UniProt P17612); details: Compound concentration 1000.0 nM
[25] = target: Ribosomal protein S6 kinase alpha-5 (Homo sapiens) (UniProt O75582); details: Compound concentration 1000.0 nM
[26] = target: Tyrosine-protein kinase receptor TYRO3 (Homo sapiens) (UniProt Q06418); details: Compound concentration 1000.0 nM
Tyrosine-protein kinase receptor TYRO3 (Homo sapiens), sequence (Q06418 whole entry): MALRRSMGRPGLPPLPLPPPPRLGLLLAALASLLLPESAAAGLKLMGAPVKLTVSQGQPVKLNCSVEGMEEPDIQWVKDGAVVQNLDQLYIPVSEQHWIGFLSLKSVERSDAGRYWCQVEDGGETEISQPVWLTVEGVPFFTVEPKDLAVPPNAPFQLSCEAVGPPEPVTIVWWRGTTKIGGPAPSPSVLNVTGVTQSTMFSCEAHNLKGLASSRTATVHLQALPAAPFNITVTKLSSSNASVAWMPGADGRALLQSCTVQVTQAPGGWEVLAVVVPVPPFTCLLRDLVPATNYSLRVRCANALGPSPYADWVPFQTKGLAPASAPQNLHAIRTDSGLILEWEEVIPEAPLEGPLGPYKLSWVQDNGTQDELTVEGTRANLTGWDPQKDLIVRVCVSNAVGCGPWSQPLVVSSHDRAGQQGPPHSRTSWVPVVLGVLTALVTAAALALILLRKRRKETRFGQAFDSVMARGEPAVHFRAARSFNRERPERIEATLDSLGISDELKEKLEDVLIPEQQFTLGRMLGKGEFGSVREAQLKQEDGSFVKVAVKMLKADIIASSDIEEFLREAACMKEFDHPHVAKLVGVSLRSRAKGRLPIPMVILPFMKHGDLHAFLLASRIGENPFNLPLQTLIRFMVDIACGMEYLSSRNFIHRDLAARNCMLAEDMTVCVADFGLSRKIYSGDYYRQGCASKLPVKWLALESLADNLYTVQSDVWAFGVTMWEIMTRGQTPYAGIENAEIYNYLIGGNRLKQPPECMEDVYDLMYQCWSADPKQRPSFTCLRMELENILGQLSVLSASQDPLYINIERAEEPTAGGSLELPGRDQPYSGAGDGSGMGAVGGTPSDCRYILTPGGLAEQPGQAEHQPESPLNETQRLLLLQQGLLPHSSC

[27] = target: Serine/threonine-protein kinase MAK (Homo sapiens) (UniProt P20794); details: Compound concentration 1000.0 nM
[28] = target: Kappa-type opioid receptor (Homo sapiens) (UniProt P41145); details: Compound concentration 10.0 uM
[29] = target: Dual specificity mitogen-activated protein kinase kinase 4 (Homo sapiens) (UniProt P45985); details: Compound concentration 1000.0 nM
Dual specificity mitogen-activated protein kinase kinase 4 (Homo sapiens), sequence (P45985 whole entry): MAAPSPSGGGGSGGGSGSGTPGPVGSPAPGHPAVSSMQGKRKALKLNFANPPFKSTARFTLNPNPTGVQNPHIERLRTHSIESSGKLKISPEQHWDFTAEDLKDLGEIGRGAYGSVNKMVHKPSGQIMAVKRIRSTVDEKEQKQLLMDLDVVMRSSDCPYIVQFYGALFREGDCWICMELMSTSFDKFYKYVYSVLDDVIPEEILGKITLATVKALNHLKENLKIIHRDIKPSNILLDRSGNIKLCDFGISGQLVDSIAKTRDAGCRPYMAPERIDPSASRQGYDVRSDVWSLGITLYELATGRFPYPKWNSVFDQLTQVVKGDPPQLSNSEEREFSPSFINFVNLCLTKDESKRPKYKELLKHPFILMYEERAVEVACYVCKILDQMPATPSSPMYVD

[30] = target: cGMP-dependent protein kinase 2 (Homo sapiens) (UniProt Q13237); details: Compound concentration 1000.0 nM
[31] = target: 5-hydroxytryptamine receptor 3A (Homo sapiens) (UniProt P46098); details: Compound concentration 10.0 uM
[32] = target: Rhodopsin kinase GRK1 (Homo sapiens) (UniProt Q15835); details: Compound concentration 1000.0 nM
[33] = system: Phosphatidylinositol 4,5-bisphosphate 3-kinase catalytic subunit alpha isoform (Homo sapiens), P42336 [I800L]; details: Compound concentration 1000.0 nM
[34] = target: Mitogen-activated protein kinase kinase kinase 1 (Homo sapiens) (UniProt Q13233); details: Compound concentration 1000.0 nM
[35] = target: Mitogen-activated protein kinase 8 (Homo sapiens) (UniProt P45983); details: Compound concentration 1000.0 nM
[36] = target: Serine/threonine-protein kinase PAK 3 (Homo sapiens) (UniProt O75914); details: Compound concentration 1000.0 nM
[37] = target: Tyrosine-protein kinase HCK (Homo sapiens) (UniProt P08631); details: Compound concentration 1000.0 nM
[38] = target: LIM domain kinase 1 (Homo sapiens) (UniProt P53667); details: Compound concentration 1000.0 nM
[39] = target: Macrophage colony-stimulating factor 1 receptor (Homo sapiens) (UniProt P07333); details: Compound concentration 1000.0 nM
[40] = target: Ribosomal protein S6 kinase alpha-2 (Homo sapiens) (UniProt Q15349); details: Compound concentration 1000.0 nM
[41] = target: Angiopoietin-1 receptor (Homo sapiens) (UniProt Q02763); details: Compound concentration 1000.0 nM
Angiopoietin-1 receptor (Homo sapiens), sequence (Q02763 whole entry): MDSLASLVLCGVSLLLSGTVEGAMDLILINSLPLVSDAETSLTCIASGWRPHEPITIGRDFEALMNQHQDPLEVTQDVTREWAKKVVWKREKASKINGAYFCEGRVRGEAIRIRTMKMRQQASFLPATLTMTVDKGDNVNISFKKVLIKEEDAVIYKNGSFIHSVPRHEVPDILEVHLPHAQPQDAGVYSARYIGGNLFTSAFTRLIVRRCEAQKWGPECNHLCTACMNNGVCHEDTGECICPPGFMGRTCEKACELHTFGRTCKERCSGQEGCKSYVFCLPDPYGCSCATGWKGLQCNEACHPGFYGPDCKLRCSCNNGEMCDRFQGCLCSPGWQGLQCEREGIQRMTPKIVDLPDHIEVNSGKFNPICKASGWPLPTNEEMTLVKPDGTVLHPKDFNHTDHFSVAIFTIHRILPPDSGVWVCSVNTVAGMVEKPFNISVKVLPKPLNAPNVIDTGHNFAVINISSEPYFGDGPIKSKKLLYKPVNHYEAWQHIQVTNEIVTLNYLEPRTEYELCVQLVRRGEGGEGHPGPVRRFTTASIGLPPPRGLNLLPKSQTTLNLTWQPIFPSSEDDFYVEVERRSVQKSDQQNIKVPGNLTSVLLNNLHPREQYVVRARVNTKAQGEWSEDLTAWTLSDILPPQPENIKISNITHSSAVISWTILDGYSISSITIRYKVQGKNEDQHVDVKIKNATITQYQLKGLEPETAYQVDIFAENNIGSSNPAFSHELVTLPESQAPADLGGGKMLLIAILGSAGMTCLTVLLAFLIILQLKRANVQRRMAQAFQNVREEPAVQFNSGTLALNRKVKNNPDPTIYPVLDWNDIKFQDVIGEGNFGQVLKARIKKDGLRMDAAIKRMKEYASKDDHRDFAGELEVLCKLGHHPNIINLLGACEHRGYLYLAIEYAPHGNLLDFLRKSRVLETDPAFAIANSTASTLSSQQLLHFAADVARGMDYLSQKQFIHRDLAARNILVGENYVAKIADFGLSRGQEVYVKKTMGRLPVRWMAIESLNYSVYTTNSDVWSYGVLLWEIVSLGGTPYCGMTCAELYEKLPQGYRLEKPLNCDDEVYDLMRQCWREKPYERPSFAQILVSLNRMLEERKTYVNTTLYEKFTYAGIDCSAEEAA

[42] = target: Mitogen-activated protein kinase 11 (Homo sapiens) (UniProt Q15759); details: Compound concentration 1000.0 nM
[43] = target: Phosphatidylinositol 4-phosphate 5-kinase type-1 alpha (Homo sapiens) (UniProt Q99755); details: Compound concentration 1000.0 nM
[44] = target: Protein-tyrosine kinase 6 (Homo sapiens) (UniProt Q13882); details: Compound concentration 1000.0 nM
[45] = target: Phosphatidylinositol 4,5-bisphosphate 3-kinase catalytic subunit gamma isoform (Homo sapiens) (UniProt P48736); details: Compound concentration 1000.0 nM

Myosin-IIIb (Homo sapiens), sequence (Q8WXR4 whole entry): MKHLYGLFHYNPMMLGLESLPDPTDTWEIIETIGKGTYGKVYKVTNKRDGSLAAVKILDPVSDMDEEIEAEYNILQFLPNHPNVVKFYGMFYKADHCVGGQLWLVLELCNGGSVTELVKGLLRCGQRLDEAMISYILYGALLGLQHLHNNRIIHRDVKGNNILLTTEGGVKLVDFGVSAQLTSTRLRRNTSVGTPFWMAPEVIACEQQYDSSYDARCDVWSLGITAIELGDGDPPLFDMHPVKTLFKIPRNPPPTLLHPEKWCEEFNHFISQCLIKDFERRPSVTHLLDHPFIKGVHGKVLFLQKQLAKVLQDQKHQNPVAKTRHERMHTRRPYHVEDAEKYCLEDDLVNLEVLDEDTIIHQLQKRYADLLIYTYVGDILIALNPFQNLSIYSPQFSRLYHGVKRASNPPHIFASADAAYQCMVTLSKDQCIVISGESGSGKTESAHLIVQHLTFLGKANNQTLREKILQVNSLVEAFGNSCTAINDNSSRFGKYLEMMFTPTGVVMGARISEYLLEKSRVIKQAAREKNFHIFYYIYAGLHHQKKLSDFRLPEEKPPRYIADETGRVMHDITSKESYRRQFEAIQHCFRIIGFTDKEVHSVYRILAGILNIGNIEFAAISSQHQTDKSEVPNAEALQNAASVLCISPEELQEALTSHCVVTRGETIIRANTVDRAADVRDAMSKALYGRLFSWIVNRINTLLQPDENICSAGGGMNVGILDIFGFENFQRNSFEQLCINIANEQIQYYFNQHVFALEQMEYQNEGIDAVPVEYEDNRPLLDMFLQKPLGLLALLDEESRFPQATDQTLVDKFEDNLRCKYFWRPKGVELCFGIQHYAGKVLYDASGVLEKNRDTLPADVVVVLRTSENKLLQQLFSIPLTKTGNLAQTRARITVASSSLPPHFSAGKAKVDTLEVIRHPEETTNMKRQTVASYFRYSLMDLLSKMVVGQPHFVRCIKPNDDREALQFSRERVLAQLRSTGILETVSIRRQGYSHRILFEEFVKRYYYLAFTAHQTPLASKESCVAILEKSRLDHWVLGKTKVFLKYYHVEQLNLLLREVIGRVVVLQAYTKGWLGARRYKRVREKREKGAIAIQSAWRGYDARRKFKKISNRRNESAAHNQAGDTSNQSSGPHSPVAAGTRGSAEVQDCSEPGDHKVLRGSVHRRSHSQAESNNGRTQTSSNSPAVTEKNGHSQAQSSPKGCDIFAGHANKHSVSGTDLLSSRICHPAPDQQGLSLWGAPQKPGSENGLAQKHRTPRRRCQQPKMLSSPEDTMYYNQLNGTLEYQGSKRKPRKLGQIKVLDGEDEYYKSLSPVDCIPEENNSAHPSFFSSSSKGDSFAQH

COc1cccc(CNC(=O)c2nc3scc(COCc4ccc(C(=O)O)cc4)c3c(=O)[nH]2)c1 [T-26c]
inactive: residual activity [1] 100% | residual activity [2] 67.3% | residual activity [3] 61.7% | residual activity [4] 100% | residual activity [5] 100% | inhibition [6] -7.42% | residual activity [7] 95.5% | residual activity [8] 66.8% | inhibition [9] -9.59% | residual activity [10] 100% | residual activity [11] 100% | residual activity [12] 94.4% | residual activity [13] 99.6% | residual activity [14] 100% | residual activity [15] 78.1% | residual activity [16] 54.2% | residual activity [17] 100% | residual activity [18] 89.4% | residual activity [19] 100% | residual activity [20] 100% | residual activity [21] 95.3% | residual activity [22] 73.5% | residual activity [23] 92.3% | residual activity [24] 100% | residual activity [25] 93.1% | residual activity [26] 100% | residual activity [27] 100% | inhibition [28] 8.18% | residual activity [29] 59.7% | residual activity [30] 100% | inhibition [31] 6.87% | residual activity [32] 57.5% | residual activity [33] 77.2% | residual activity [34] 63.1% | residual activity [35] 100% | residual activity [36] 51.9% | residual activity [37] 79.7% | residual activity [38] 96.8% | residual activity [39] 100% | residual activity [40] 100% | residual activity [41] 100% | residual activity [42] 100% | residual activity [43] 100% | residual activity [44] 82.5% | residual activity [45] 76.8%
